According to patent publication US11292821B2, “Peptides and combination of peptides for use in immunotherapy against lung cancer, including NSCLC, SCLC and other cancers” (Immatics Biotechnologies GmbH, priority 2017, dated 2022):

Assays:
HLA-B*44 = assay: MHC binding assay (UV-ligand exchange, β2m ELISA); design: species or system human; conditions: for Peptide exchange (peptide exchange yield, MHC class I binding score): UV-ligand exchange, β2m ELISA
HLA-B*07 = HLA-B*07 (Homo sapiens, UniProt P01889); assay: MHC binding assay (UV-ligand exchange, β2m ELISA)
From the text: Candidate peptides for T cell based therapies according to the present invention were further tested for their MHC binding capacity (affinity). The individual peptide-MHC complexes were produced by UV-ligand exchange, where a UV-sensitive peptide is cleaved upon UV-irradiation, and exchanged with the peptide of interest as analyzed. Only peptide candidates that can effectively bind and stabilize the peptide-receptive MHC molecules prevent dissociation of the MHC complexes. To determine the yield of the exchange reaction, an ELISA was performed based on the detection of the light chain (β2m) of stabilized MHC complexes. The assay was performed as generally described in Rodenko et al. (Rodenko et al., 2006).
96 well MAXISorp plates (NUNC) were coated over night with 2 ug/ml streptavidin in PBS at room temperature, washed 4× and blocked for 1 h at 37° C. in 2% BSA containing blocking buffer. […] Peptide-MHC monomers of the UV-exchange reaction were diluted 100-fold in blocking buffer. Samples were incubated for 1 h at 37° C., washed four times, incubated with 2 ug/ml HRP conjugated anti-β2m for 1h at 37° C., washed again and detected with TMB solution that is stopped with […]. Absorption was measured at 450 nm. Candidate peptides that show a high exchange yield (preferably higher than 50%, most preferred higher than 75%) are generally preferred for a generation and production of antibodies or fragments thereof, and/or T cell receptors or fragments thereof, as they show sufficient avidity to the MHC molecules and prevent dissociation of the MHC complexes.

CD8+ T cells = assay: In vitro T-cell priming assay with aAPCs (in vitro immunogenicity for MHC class I presented peptides); format: cell-based, human; conditions: in vitro immunogenicity, HLA B*07

Substance | Peptide exchange (peptide exchange yield, MHC class I binding score) (HLA-B*44) | Peptide exchange (peptide exchange yield, MHC class I binding score) (HLA-B*07) | Wells positive [%] (CD8+ T cells) | also measured
344 (EEATGQFHVY; listed as Homo sapiens) [compound 344] | “+++” (>50 =+++) | – | – | –
335 (KELEATKQY; listed as Homo sapiens) [compound 335] | “++” (>20% = ++) | – | – | –
327 (YEIEARNQVF; listed as Homo sapiens) [compound 327] | “+++” (>50 =+++) | – | – | –
319 (AEMLERVIKNY; listed as Homo sapiens) [compound 319] | “++++” (>75% = ++++) | – | – | –
332 (MEVPVIKI; listed as Homo sapiens) [compound 332] | “++” (>20% = ++) | – | – | –
343 (TEFTTVLY; listed as Homo sapiens) [compound 343] | “++” (>20% = ++) | – | – | –
348 (AEIQGNINHV; listed as Homo sapiens) [compound 348] | “+++” (>50 =+++) | – | – | –
321 (AEMLESVIKNY; listed as Homo sapiens) [compound 321] | “+++” (>50 =+++) | – | – | –
341 (EEIEGKGSFTYF; listed as Homo sapiens) [compound 341] | “+++” (>50 =+++) | – | – | –
354 (TEDPTILRI; listed as Homo sapiens) [compound 354] | “+++” (>50 =+++) | – | – | –
AEIEADRSY (listed as Homo sapiens) [SEQ ID NO: 531] | – | – | – | binding to HLA allotype (HLA-B*44): binds to HLA-B*44
346 (VEAPGPVHVYW; listed as Homo sapiens) [compound 346] | “++++” (>75% = ++++) | – | – | –
294 (GPTPNTGAAL; listed as Homo sapiens) [compound 294] | – | “++++” (>75% = ++++) | “+++” (50%-69% = +++) | –
225 (LPFDGPGGIL; listed as Homo sapiens) [compound 225] | – | “++++” (>75% = ++++) | “++++” (>=70% = ++++) | –
226 (SPRMSGLLSQT; listed as Homo sapiens) [compound 226] | – | “++++” (>75% = ++++) | “+++” (50%-69% = +++) | –
350 (GECDVFKEIL; listed as Homo sapiens) [compound 350] | “+++” (>50 =+++) | – | – | –
222 (NPFYPEVEL; listed as Homo sapiens) [compound 222] | – | “+++” (>50 = +++) | “+” (<20% = +) | –
228 (YPRGNHWAVGHL; listed as Homo sapiens) [compound 228] | – | “++++” (>75% = ++++) | “++” (20%-49% = ++) | –
241 (SARLATDAL; listed as Homo sapiens) [compound 241] | – | “++++” (>75% = ++++) | “+++” (50%-69% = +++) | –
349 (AEQDMRELTY; listed as Homo sapiens) [compound 349] | “+++” (>50 =+++) | – | – | –
252 (SPDIRNTTV; listed as Homo sapiens) [compound 252] | – | “++++” (>75% = ++++) | “+” (<20% = +) | –
292 (SPQRLRGLLL; listed as Homo sapiens) [compound 292] | – | “+++” (>50 = +++) | “+++” (50%-69% = +++) | –
248 (IPNWARQDL; listed as Homo sapiens) [compound 248] | – | “++++” (>75% = ++++) | “++++” (>=70% = ++++) | –
285 (FPSFLTNSL; listed as Homo sapiens) [compound 285] | – | “++++” (>75% = ++++) | “++++” (>=70% = ++++) | –
231 (RPRALRDLQL; listed as Homo sapiens) [compound 231] | – | “++++” (>75% = ++++) | “++” (20%-49% = ++) | –
233 (KPYQGNPTF; listed as Homo sapiens) [compound 233] | – | “++++” (>75% = ++++) | “+” (<20% = +) | –
244 (FPYVRDFVM; listed as Homo sapiens) [compound 244] | – | “++++” (>75% = ++++) | “+” (<20% = +) | –
237 (RPAATAVISL; listed as Homo sapiens) [compound 237] | – | “+++” (>50 = +++) | “+” (<20% = +) | –
249 (VPSSRILQL; listed as Homo sapiens) [compound 249] | – | “++++” (>75% = ++++) | “+++” (50%-69% = +++) | –

The next lines start with results.

Peptide exchange (peptide exchange yield, MHC class I binding score) (HLA-B*44) | Peptide exchange (peptide exchange yield, MHC class I binding score) (HLA-B*07) | Substance | Wells positive [%] (CD8+ T cells) | also measured
“+++” (>50 =+++) | – | 373 (MEMQKSPVF; listed as Homo sapiens) [compound 373] | – | –
“+++” (>50 =+++) | – | 485 (SEIEDSTKQVF; listed as Homo sapiens) [compound 485] | – | –
“+++” (>50 =+++) | – | 481 (RELQHEHSL; listed as Homo sapiens) [compound 481] | – | –
“+++” (>50 =+++) | – | 359 (DELFSIALY; listed as Homo sapiens) [compound 359] | – | –
“++++” (>75% = ++++) | – | 484 (AEVGFVRFF; listed as Homo sapiens) [compound 484] | – | –
“++++” (>75% = ++++) | – | 489 (SEIGKAVGF; listed as Homo sapiens) [compound 489] | – | –
“+++” (>50 =+++) | – | 486 (SEDDPILQI; listed as Homo sapiens) [compound 486] | – | –
“++” (>20% = ++) | – | 488 (TEFPIIKMY; listed as Homo sapiens) [compound 488] | – | –
“++” (>20% = ++) | – | 371 (GELALKKKI; listed as Homo sapiens) [compound 371] | – | –
“++++” (>75% = ++++) | – | 365 (SEMNVNMKY; listed as Homo sapiens) [compound 365] | – | –
“+++” (>50 =+++) | – | 369 (EEIERFFKL; listed as Homo sapiens) [compound 369] | – | –
“+++” (>50 =+++) | – | 482 (TEREWADEW; listed as Homo sapiens) [compound 482] | – | –
“+++” (>50 =+++) | – | 356 (EEGRVYLF; listed as Homo sapiens) [compound 356] | – | –
“+” (>10% = +) | – | 370 (YEDLSQKY; listed as Homo sapiens) [compound 370] | – | –
“++++” (>75% = ++++) | – | 361 (SENLFFASF; listed as Homo sapiens) [compound 361] | – | –
“+” (>10% = +) | – | 374 (DEVNFLVY; listed as Homo sapiens) [compound 374] | – | –
“++” (>20% = ++) | – | 372 (TEGIIMKDF; listed as Homo sapiens) [compound 372] | – | –
“+++” (>50 =+++) | – | 364 (AETPIQNVI; listed as Homo sapiens) [compound 364] | – | –
“+++” (>50 =+++) | – | 487 (AEDQLHHSF; listed as Homo sapiens) [compound 487] | – | –
“+++” (>50 =+++) | – | 363 (AELDKLTSV; listed as Homo sapiens) [compound 363] | – | –
“++” (>20% = ++) | – | 366 (AENLFRAF; listed as Homo sapiens) [compound 366] | – | –
– | “++++” (>75% = ++++) | 473 (LPRALLSSL; listed as Homo sapiens) [compound 473] | “++” (20%-49% = ++) | –
“+++” (>50 =+++) | – | 367 (GEVHPSEMI; listed as Homo sapiens) [compound 367] | – | –
“++” (>20% = ++) | – | 480 (GEVSGLTKDF; listed as Homo sapiens) [compound 480] | – | –
“++++” (>75% = ++++) | – | 358 (KEADIHFLI; listed as Homo sapiens) [compound 358] | – | –
– | “++++” (>75% = ++++) | 462 (RPFHTRATV; listed as Homo sapiens) [compound 462] | “++” (20%-49% = ++) | –
– | “++++” (>75% = ++++) | 460 (MPMAGDMNGL; listed as Homo sapiens) [compound 460] | “++” (20%-49% = ++) | –
